From patent publication US10952992B2, “Methods of treating intraocular pressure with activators of Tie-2” (Aerpio Pharmaceuticals, Inc., priority 2015, dated 2021)
Several values for one entry are separate records, joined by “and”; a condition that tells them apart may be missing. Identical values can stand only once.

Experiment: Example 2 iris, retina, choroid and cornea tissue concentrations
Format: in vivo, male New Zealand White rabbits
Settings: for Choroid Conc. OS / Choroid Conc. OD: choroid homogenate; for Choroid Conc. OS / Choroid tissue Conc. OS / Cornea Conc. OS / Cornea tissue Conc. OS / Iris Conc. OS / Iris tissue Conc. OS / Retina Conc. OS / Retina tissue Conc. OS: left eye; for Choroid Conc. OS / Choroid Conc. OD / Choroid tissue Conc. OS / Choroid tissue Conc. OD / Cornea Conc. OS / Cornea Conc. OD / Cornea tissue Conc. OS / Cornea tissue Conc. OD / Iris Conc. OS / Iris Conc. OD / Iris tissue Conc. OS / Iris tissue Conc. OD / Retina Conc. OS / Retina Conc. OD / Retina tissue Conc. OS / Retina tissue Conc. OD: individual animals; for Choroid Conc. OS / Choroid Conc. OD / Choroid tissue Conc. Avg. / Choroid tissue Conc. OS / Choroid tissue Conc. OD / Cornea Conc. OS / Cornea Conc. OD / Cornea tissue Conc. Avg. / Cornea tissue Conc. OS / Cornea tissue Conc. OD / Iris Conc. OS / Iris Conc. OD / Iris tissue Conc. Avg. / Iris tissue Conc. OS / Iris tissue Conc. OD / Retina Conc. OS / Retina Conc. OD / Retina tissue Conc. Avg. / Retina tissue Conc. OS / Retina tissue Conc. OD: intravitreal 2.5 mg/eye (~1.54 mg/kg), group 5; for Choroid Conc. OD / Choroid tissue Conc. OD / Cornea Conc. OD / Cornea tissue Conc. OD / Iris Conc. OD / Iris tissue Conc. OD / Retina Conc. OD / Retina tissue Conc. OD: right eye; for Choroid tissue Conc. Avg. / Cornea tissue Conc. Avg. / Iris tissue Conc. Avg. / Retina tissue Conc. Avg.: average; for Cornea Conc. OS / Cornea Conc. OD: cornea homogenate; for Iris Conc. OS / Iris Conc. OD: iris homogenate; for Retina Conc. OS / Retina Conc. OD: retina homogenate
Method: To measure the concentration of Compound 1 in plasma and ocular tissues following topical ocular, subcutaneous, and intravitreal administration, New Zealand White rabbits were administered Compound 1, and plasma and ocular samples were collected at pre-determined time points. Compound 1 formulations were prepared fresh on each day of dosing.
Ocular tissue samples from both eyes of each animal were collected and weights were recorded. Plasma and ocular tissue sample concentrations of Compound 1 were determined by LC-MS/MS.
Animals were anesthetized for ocular (topical) and intravitreal dosing following the 12IA7 IACUC protocol. Each rabbit received a bolus dose of test formulation either via topical ocular administration 3 times daily on Days 1 and 2 (at 0, 6, and 12 hours), and once on Day 3 (at 0 hours) into both eyes; via intravitreal administration into both eyes once on Day 1 (at 0 hours); or via subcutaneous administration 2 times daily on Days 1 and 2 (at 0 and 8 hours) and once daily on Day 3 (at 0 hours). Doses were given within an approximately 1 hour window each day where applicable.
On Day 1, for intravitreal administration, or on Day 3, for topical ocular and subcutaneous administration, at the appropriate ocular tissue collection time points, animals were euthanized and both eyes were enucleated immediately. Following enucleation, each eye was rinsed with phosphate-buffered saline. Ocular tissue samples from both eyes of each animal were collected at predetermined time points and weights were recorded. All the samples were frozen immediately on dry ice, and stored at −60° C. to −80° C. pending bioanalysis.
An LC-MS/MS method was developed for the determination of Compound 1 in rabbit aqueous tissues (plasma, aqueous and vitreous humor) and solid ocular tissue samples. A pre-study standard curve was analyzed to determine the specificity, range, and lower limit of quantitation of the method. Plasma and tissue homogenate study samples were extracted and analyzed. All the samples were treated identically to the standards.
One eight-point standard curve was used in each analytical batch. To be accepted, each batch must have had at least five of eight standards with accuracy within ±20% of nominal, except at the lower limit of quantification (LLOQ), where ±25% was acceptable.

COC(=O)N[C@@H](Cc1ccccc1)C(=O)N[C@@H](Cc1ccc(NS(=O)(=O)O)cc1)c1csc(-c2cccs2)n1 [Compound 1 free acid]
Choroid Conc. OS (24 hr): 28400 ng/mL and 43500 ng/mL | Choroid Conc. OD (24 hr): 15200 ng/mL and 57500 ng/mL | Choroid Conc. OS (48 hr): 9320 ng/mL and 14800 ng/mL | Choroid Conc. OD (48 hr): 9940 ng/mL and 9580 ng/mL | Choroid Conc. OS (72 hr): 2660 ng/mL and 2910 ng/mL | Choroid Conc. OD (72 hr): 2180 ng/mL and 2270 ng/mL | Choroid tissue Conc. Avg. (6.0 hr): 663575 ng/g | Choroid tissue Conc. OS (6.0 hr): 697400 ng/g and 766700 ng/g | Choroid tissue Conc. OD (6.0 hr): 360800 ng/g and 829400 ng/g | Choroid tissue Conc. Avg. (24 hr): 397650 ng/g | Choroid tissue Conc. OS (24 hr): 312400 ng/g and 478500 ng/g | Choroid tissue Conc. OD (24 hr): 167200 ng/g and 632500 ng/g | Choroid tissue Conc. Avg. (48 hr): 120010 ng/g | Choroid tissue Conc. OS (48 hr): 102520 ng/g | Choroid tissue Conc. OD (48 hr): 109340 ng/g and 105380 ng/g | Choroid tissue Conc. Avg. (72 hr): 27555 ng/g | Choroid tissue Conc. OS (72 hr): 29260 ng/g and 32010 ng/g | Choroid tissue Conc. OD (72 hr): 23980 ng/g and 24970 ng/g | Cornea Conc. OS (6.0 hr): 3140 ng/mL and 1180 ng/mL | Cornea Conc. OD (6.0 hr): 7910 ng/mL and 7610 ng/mL | Cornea Conc. OS (24 hr): 1190 ng/mL and 1050 ng/mL | Cornea Conc. OD (24 hr): 1520 ng/mL and 2520 ng/mL | Cornea Conc. OS (48 hr): 293 ng/mL and 571 ng/mL | Cornea Conc. OD (48 hr): 437 ng/mL and 384 ng/mL | Cornea Conc. OS (72 hr): 117 ng/mL and 45.3 ng/mL | Cornea Conc. OD (72 hr): 37.7 ng/mL and 77.2 ng/mL | Cornea tissue Conc. Avg. (6.0 hr): 54560 ng/g | Cornea tissue Conc. OS (6.0 hr): 34540 ng/g and 12980 ng/g | Cornea tissue Conc. OD (6.0 hr): 87010 ng/g and 83710 ng/g | Cornea tissue Conc. Avg. (24 hr): 17270 ng/g | Cornea tissue Conc. OS (24 hr): 13090 ng/g and 11550 ng/g | Cornea tissue Conc. OD (24 hr): 16720 ng/g and 27720 ng/g | Cornea tissue Conc. Avg. (48 hr): 4634 ng/g | Cornea tissue Conc. OS (48 hr): 3223 ng/g and 6281 ng/g | Cornea tissue Conc. OD (48 hr): 4807 ng/g and 4224 ng/g | Cornea tissue Conc. Avg. (72 hr): 762 ng/g | Cornea tissue Conc. OS (72 hr): 1287 ng/g and 498 ng/g | Cornea tissue Conc. OD (72 hr): 415 ng/g and 849 ng/g | distribution among iris, retina, choroid, cornea (FIG. 16) (intravitreal 1.54 mg/kg, free acid): generally higher in the retina and choroid | ocular tissue concentrations at 72 hours, free acid suspension relative to sodium salt solution (intravitreal administration): higher concentrations | Iris Conc. OS (6.0 hr): 13800 ng/mL and 12200 ng/mL | Iris Conc. OD (6.0 hr): 18500 ng/mL and 32100 ng/mL | Iris Conc. OS (24 hr): 14100 ng/mL and 8200 ng/mL | Iris Conc. OD (24 hr): 7670 ng/mL and 11000 ng/mL | Iris Conc. OS (48 hr): 1950 ng/mL and 2030 ng/mL | Iris Conc. OD (48 hr): 1010 ng/mL and 1110 ng/mL | Iris Conc. OS (72 hr): 1800 ng/mL and 1320 ng/mL | Iris Conc. OD (72 hr): 279 ng/mL and 351 ng/mL | Iris tissue Conc. Avg. (6.0 hr): 210650 ng/g | Iris tissue Conc. OS (6.0 hr): 151800 ng/g and 134200 ng/g | Iris tissue Conc. OD (6.0 hr): 203500 ng/g and 353100 ng/g | Iris tissue Conc. Avg. (24 hr): 112668 ng/g | Iris tissue Conc. OS (24 hr): 155100 ng/g and 90200 ng/g | Iris tissue Conc. OD (24 hr): 84370 ng/g and 121000 ng/g | Iris tissue Conc. Avg. (48 hr): 16775 ng/g | Iris tissue Conc. OS (48 hr): 21450 ng/g and 22330 ng/g | Iris tissue Conc. OD (48 hr): 11110 ng/g and 12210 ng/g | Iris tissue Conc. Avg. (72 hr): 10313 ng/g | Iris tissue Conc. OS (72 hr): 19800 ng/g and 14520 ng/g | Iris tissue Conc. OD (72 hr): 3069 ng/g and 3861 ng/g | Retina Conc. OS (6.0 hr): 154000 ng/mL and 120000 ng/mL | Retina Conc. OD (6.0 hr): 146000 ng/mL and 303000 ng/mL | Retina Conc. OS (24 hr): 98900 ng/mL and 198000 ng/mL | Retina Conc. OD (24 hr): 130000 ng/mL and 145000 ng/mL | Retina Conc. OS (48 hr): 14000 ng/mL and 101000 ng/mL | Retina Conc. OD (48 hr): 66700 ng/mL and 65500 ng/mL | Retina Conc. OS (72 hr): 10800 ng/mL and 12900 ng/mL | Retina Conc. OD (72 hr): 9890 ng/mL and 6070 ng/mL | Retina tissue Conc. Avg. (6.0 hr): 1988250 ng/g | Retina tissue Conc. OS (6.0 hr): 1694000 ng/g and 1320000 ng/g | Retina tissue Conc. OD (6.0 hr): 1606000 ng/g | Retina tissue Conc. Avg. (24 hr): 1572725 ng/g | Retina tissue Conc. OS (24 hr): 1087900 ng/g and 2178000 ng/g | Retina tissue Conc. OD (24 hr): 1430000 ng/g and 1595000 ng/g | Retina tissue Conc. Avg. (48 hr): 679800 ng/g | Retina tissue Conc. OS (48 hr): 154000 ng/g and 1111000 ng/g | Retina tissue Conc. OD (48 hr): 733700 ng/g and 720500 ng/g | Retina tissue Conc. Avg. (72 hr): 109065 ng/g | Retina tissue Conc. OS (72 hr): 118800 ng/g and 141900 ng/g | Retina tissue Conc. OD (72 hr): 108790 ng/g and 66770 ng/g | distribution among iris, retina, choroid, cornea (FIG. 14) (subcutaneous 5 mg/kg/dose, free acid): generally higher in the iris and choroid
